Where “and” joins values, the source holds several entries; their conditions need not be identical. Identical values can stand only once. Toxic doses and inconclusive results are not listed.
Tested on: L1210 leukemia ip in BDF1 mice, survival T/C
Test: NCI In Vivo Anticancer Drug Screen. Data for tumor model L1210 Leukemia (intraperitoneal) in B6D2F1 (BDF1) mice
Conditions: endpoint: mean survival time, higher = longer survival
Method in brief: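 Antitumor effect is assessed in tumor-bearing animals. Survival in the compound arm is compared with a vehicle-dosed control arm and expressed as their quotient.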

[1] = dose: 25.0 mg/kg/injection, schedule: Q01DX009 (ip), vehicle: water
[2] = dose: 50.0 mg/kg/injection, schedule: Q01DX009 (ip), vehicle: water
[3] = dose: 100.0 mg/kg/injection, schedule: Q01DX009 (ip), vehicle: water
[4] = dose: 100.0 mg/kg/injection, schedule: Q04DX003 (ip), vehicle: saline
[5] = dose: 200.0 mg/kg/injection, schedule: Q04DX003 (ip), vehicle: saline
[6] = dose: 100.0 mg/kg/injection, schedule: Q01DX001 (ip), vehicle: other
[7] = dose: 200.0 mg/kg/injection, schedule: Q01DX001 (ip), vehicle: other
[8] = dose: 400.0 mg/kg/injection, schedule: Q01DX001 (ip), vehicle: other
[9] = dose: 100.0 mg/kg/injection, schedule: Q01DX001 (ip), vehicle: saline

O=C(O)CCC1(c2ccccc2)CCCC1=O (configuration not stated)
T/C (dose: 12.5 mg/kg/injection, schedule: Q01DX009 (ip), vehicle: water): 101 % of control
T/C [1]: 104 % of control
T/C [2]: 98 % of control
T/C [3]: 95 % of control

CCN(CC)CCOCCO
T/C [4]: 96 % of control
T/C [5]: 102 % of control
T/C (dose: 400.0 mg/kg/injection, schedule: Q04DX003 (ip), vehicle: saline): 109 % of control

O=C(NCCO)c1ccc(Br)cc1
T/C (dose: 50.0 mg/kg/injection, schedule: Q01DX009 (ip), vehicle: saline with Tween-80): 97 % of control
T/C (dose: 100.0 mg/kg/injection, schedule: Q01DX009 (ip), vehicle: saline with Tween-80): 97 % of control
T/C (dose: 200.0 mg/kg/injection, schedule: Q01DX009 (ip), vehicle: saline with Tween-80): 90 % of control

O=C1NC(=O)C(c2cccs2)(c2cccs2)N1
T/C [1]: 98 % of control
T/C [2]: 102 % of control
T/C [3]: 98 % of control
T/C (dose: 100.0 mg/kg/injection, schedule: Q04DX003 (ip), vehicle: water): 106 % of control
T/C (dose: 200.0 mg/kg/injection, schedule: Q01DX009 (ip), vehicle: water): 91 % of control
T/C (dose: 200.0 mg/kg/injection, schedule: Q04DX003 (ip), vehicle: water): 112 % of control
T/C (dose: 300.0 mg/kg/injection, schedule: Q01DX009 (ip), vehicle: water): 90 % of control

CCOc1ccc(OC(=O)c2ccc(O)cc2)cc1
T/C (dose: 100.0 mg/kg/injection, schedule: Q04DX003 (ip), vehicle: Klucel (hydroxypropylcellulose) (HPC)): 106 % of control
T/C (dose: 200.0 mg/kg/injection, schedule: Q04DX003 (ip), vehicle: Klucel (hydroxypropylcellulose) (HPC)): 101 % of control
T/C (dose: 400.0 mg/kg/injection, schedule: Q04DX003 (ip), vehicle: Klucel (hydroxypropylcellulose) (HPC)): 96 % of control

CCN(CC)C(=O)Nc1cccc(N)c1
T/C (dose: 100.0 mg/kg/injection, schedule: Q04DX002 (ip), vehicle: Klucel (hydroxypropylcellulose) (HPC)): 97 % of control
T/C (dose: 200.0 mg/kg/injection, schedule: Q04DX002 (ip), vehicle: Klucel (hydroxypropylcellulose) (HPC)): 101 % of control
T/C (dose: 400.0 mg/kg/injection, schedule: Q04DX002 (ip), vehicle: Klucel (hydroxypropylcellulose) (HPC)): 97 % of control

CCCCOC(=O)CC1CCCN1C (configuration not stated)
T/C [4]: 110 % of control
T/C [5]: 101 % of control

O=C(C[n+]1cccc(C(=O)NCc2ccccc2)c1)NCc1ccccc1
T/C (dose: 25.0 mg/kg/injection, schedule: Q01DX009 (ip), vehicle: saline sonified): 100 % of control
T/C (dose: 50.0 mg/kg/injection, schedule: Q01DX009 (ip), vehicle: saline sonified): 97 % of control
T/C (dose: 110.0 mg/kg/injection, schedule: Q01DX009 (ip), vehicle: saline sonified): 95 % of control

CCS(=O)(=O)c1ccc(NC(=O)OC2CCCCCC2)cc1
T/C [6]: 91 % of control
T/C [7]: 91 % of control
T/C [8]: 93 % of control

OCCN1CCN(CCCN2c3ccccc3Sc3ccc(C(F)(F)F)cc32)CC1
T/C (dose: 0.09 mg/kg/injection, schedule: Q01DX009 (ip), vehicle: Klucel (hydroxypropylcellulose) (HPC)): 109 % of control
T/C (dose: 0.12 mg/kg/injection, schedule: Q01DX009 (ip), vehicle: acetone): 107 % of control
T/C (dose: 0.19 mg/kg/injection, schedule: Q01DX009 (ip), vehicle: Klucel (hydroxypropylcellulose) (HPC)): 97 % of control
T/C (dose: 0.25 mg/kg/injection, schedule: Q01DX009 (ip), vehicle: acetone): 106 % of control
T/C (dose: 0.39 mg/kg/injection, schedule: Q01DX009 (ip), vehicle: Klucel (hydroxypropylcellulose) (HPC)): 120 % of control
T/C (dose: 0.39 mg/kg/injection, schedule: Q01DX009 (ip), vehicle: saline): 97 % of control
T/C (dose: 0.39 mg/kg/injection, schedule: Q04DX003 (ip), vehicle: saline): 101 % of control
T/C (dose: 0.5 mg/kg/injection, schedule: Q01DX009 (ip), vehicle: acetone): 112 % of control
T/C (dose: 0.58 mg/kg/injection, schedule: Q01DX009 (ip), vehicle: saline): 111 % of control
T/C (dose: 0.78 mg/kg/injection, schedule: Q01DX009 (ip), vehicle: Klucel (hydroxypropylcellulose) (HPC)): 101 % of control
T/C (dose: 0.78 mg/kg/injection, schedule: Q01DX009 (ip), vehicle: saline): 108 % of control
T/C (dose: 0.78 mg/kg/injection, schedule: Q04DX003 (ip), vehicle: saline): 97 % of control and 108 % of control
T/C (dose: 1.0 mg/kg/injection, schedule: Q01DX009 (ip), vehicle: acetone): 120 % of control
T/C (dose: 1.17 mg/kg/injection, schedule: Q01DX009 (ip), vehicle: saline): 108 % of control
T/C (dose: 1.25 mg/kg/injection, schedule: Q01DX009 (ip), vehicle: saline): 98 % of control
T/C (dose: 1.56 mg/kg/injection, schedule: Q01DX009 (ip), vehicle: Klucel (hydroxypropylcellulose) (HPC)): 92 % of control
T/C (dose: 1.56 mg/kg/injection, schedule: Q01DX009 (ip), vehicle: saline): 87 % of control
T/C (dose: 1.56 mg/kg/injection, schedule: Q04DX003 (ip), vehicle: saline): 97 % of control and 108 % of control
T/C (dose: 2.34 mg/kg/injection, schedule: Q01DX009 (ip), vehicle: saline): 97 % of control
T/C (dose: 3.12 mg/kg/injection, schedule: Q04DX003 (ip), vehicle: saline): 102 % of control and 101 % of control
T/C (dose: 4.68 mg/kg/injection, schedule: Q04DX003 (ip), vehicle: Klucel (hydroxypropylcellulose) (HPC)): 92 % of control
T/C (dose: 5.0 mg/kg/injection, schedule: Q01DX009 (ip), vehicle: saline): 94 % of control and 88 % of control
T/C (dose: 6.25 mg/kg/injection, schedule: Q04DX003 (ip), vehicle: saline): 100 % of control and 114 % of control and 112 % of control
T/C (dose: 6.6 mg/kg/injection, schedule: Q04DX003 (ip), vehicle: saline): 106 % of control
T/C (dose: 9.37 mg/kg/injection, schedule: Q04DX003 (ip), vehicle: Klucel (hydroxypropylcellulose) (HPC)): 107 % of control
T/C (dose: 10.0 mg/kg/injection, schedule: Q04DX003 (ip), vehicle: saline): 117 % of control
T/C (dose: 12.5 mg/kg/injection, schedule: Q04DX003 (ip), vehicle: saline): 107 % of control and 116 % of control
T/C (dose: 15.0 mg/kg/injection, schedule: Q04DX003 (ip), vehicle: saline): 117 % of control
T/C (dose: 50.0 mg/kg/injection, schedule: Q04DX003 (ip), vehicle: saline): 164 % of control

Cc1nc2ccc(Cl)cc2c(=O)[nH]1
T/C [6]: 102 % of control
T/C (dose: 100.0 mg/kg/injection, schedule: Q04DX003 (ip), vehicle: other): 96 % of control
T/C [7]: 96 % of control
T/C (dose: 200.0 mg/kg/injection, schedule: Q04DX003 (ip), vehicle: other): 96 % of control
T/C [8]: 104 % of control
T/C (dose: 400.0 mg/kg/injection, schedule: Q04DX003 (ip), vehicle: other): 96 % of control

CS(=O)(=O)C(=C(N1CCCCC1)N1CCCCC1)S(=O)(=O)Cc1ccccc1
T/C [9]: 100 % of control
T/C (dose: 100.0 mg/kg/injection, schedule: Q01DX009 (ip), vehicle: saline): 88 % of control
T/C (dose: 200.0 mg/kg/injection, schedule: Q01DX001 (ip), vehicle: saline): 96 % of control
T/C (dose: 200.0 mg/kg/injection, schedule: Q01DX009 (ip), vehicle: saline): 93 % of control
T/C (dose: 400.0 mg/kg/injection, schedule: Q01DX001 (ip), vehicle: saline): 96 % of control

[O-]/[N+](=N/O)c1ccccc1
T/C [9]: 92 % of control

Reference: PubChem BioAssay AID248 (DTP/NCI, 2004)
